In article PMC9207806 (ACS Chemical Biology, 2022) one finds IC50 data, which are given here for 38 compounds.

The target of the assay is T1, VACV D9 decapping enzyme (Vaccinia virus, UniProt P04311).
T1 construct: His-tag (C); made in house
The assay can be described thus: biochemical. Type of assay: biochemical. The procedure: Point fluorescence measurements were performed using the BioTek Synergy H1 microplate reader. Before each measurement, the reaction buffer was degassed. Experiments were performed in the Greiner 96-well, black, non-binding plates at 30 °C. Before the measurement, the plate was preincubated for 15 min at 30 °C with mixing (300 rpm). The point fluorescence was registered with 1 min interval and detection at 345 nm excitation wavelength and 378 nm emission wavelength.
Experiments to determine IC50 parameters were performed as point fluorescence measurements. Each well contained an appropriate buffer (10 mM MOPS·HCl, pH 7.0, 100 mM KOAc, containing 2 mM MgCl2, 0.3 mM MnCl2, and 2 mM DTT) with addition of 0.1% BSA, a fluorescent substrate (3 μM of probe 1b), an inhibitor (in half-logarithmic dilution, cinh ∈ 0, 100 μM), and an enzyme (5 nM of D9) to a final volume of 150 μL. To determine the IC50 values, a three parameter dose–response formula with standard hill slope from GraphPad Prism software was fitted [drawing 3] where V/V0 is the relative initial rate of the reaction, Imin and Imax are bottom and top plateaus, and Cinh is the concentration of the inhibitor.

The mark [1] stands for this setting: in-house nucleotide library (Table S1, Figure 3), 3 μM probe 1b, 5 nM D9, 30 °C, means of 3 independent experiments ± SEM, read-out: IC50, nucleotide-derived compounds, FLINT HTS assay.
Where [2] appears, read: read-out: IC50, nucleotide-derived compounds, FLINT HTS assay, in-house nucleotide library (Table S1, Figure 3), 3 μM probe 1b, 5 nM D9, 30 °C, means of 3 independent experiments ± SEM.

Where a name gives a salt, the structure may show the parent alone. Read-outs that look alike come from different tables or passages of the source.

As usually defined, the IC50 is the midpoint of a concentration-inhibition curve. Consider `C[n+]1cn([C@@H]2O[C@H](COP(=O)([O-])OP(=O)(O)CP(=O)(O)O)[C@@H](O)[C@H]2O)c2nc(N)nc(O)c21` [m7GppCH2p], for which the IC50 under setting [1] worked out at 1.1 ± 0.1 µM.

As to `Cn1c[n+]([C@@H]2O[C@H](COP(=O)(O)OP(=O)(O)OP(=O)(O)OC[C@H]3O[C@@H](n4cnc5c(N)ncnc54)[C@H](O)[C@@H]3O)[C@@H](O)[C@H]2O)c2nc(N)[nH]c(=O)c21` [m7GpppA], the IC50 under setting [1] is 33 ± 5.9 µM.

`Nc1nc2c(ncn2[C@@H]2O[C@H](COP(=O)(O)OP(=O)(O)OP(=O)(O)OC[C@H]3O[C@@H](n4cnc5c(=O)[nH]c(N)nc54)[C@H](O)[C@@H]3O)[C@@H](O)[C@H]2O)c(=O)[nH]1` [GpppG]: the IC50 under setting [1] was more than 100 µM.

Take m7GppCCl2ppm7G: under setting [1], the IC50 is 28.8 ± 4.1 µM.

Take `C[n+]1cn([C@@H]2O[C@H](COP(=O)(O)CP(=O)(O)OP(=O)(O)OC[C@H]3O[C@@H](n4cnc5c(=O)[nH]c(N)nc54)[C@H](O)[C@@H]3O)[C@@H](O)[C@H]2O)c2nc(N)[nH]c(=O)c21` [m7GpCH2ppG]: the IC50 under setting [1] amounted to 16.8 ± 3.3 µM.

As to `C[n+]1cn([C@@H]2O[C@H](COP(O)(=S)OP(=O)(O)OP(=O)(O)O)[C@@H](O)[C@H]2O)c2nc(N)[nH]c(=O)c21` (stereo partly drawn) [m7GTPαS], the IC50 under setting [1] came to 0.64 ± 0.06 µM.

Consider `Nc1nc2c(ncn2[C@@H]2O[C@H](COP(=O)(O)OP(=O)(O)OP(=O)(O)O)[C@@H](O)[C@H]2O)c(=O)[nH]1` [GTP, reference compound], for which, under setting [1], the IC50 was 15.4 ± 2.7 µM.

Regarding `CNc1ncnc2c1ncn2[C@@H]1O[C@H](COP(=O)(O)OP(=O)(O)OP(=O)(O)OC[C@H]2O[C@@H](n3c[n+](C)c4c(=O)[nH]c(N)nc43)[C@H](O)[C@@H]2O)[C@@H](O)[C@H]1O` [m7Gppp(m6A)], under setting [1], the IC50 stood at 31.5 ± 5.9 µM.

As for `Nc1ncnc2c1ncn2[C@@H]1O[C@H](COP(=O)(O)OP(=O)(O)OP(=O)(O)OC[C@@H]2O[C@H](n3cnc4c(N)ncnc43)[C@@H](O)[C@H]2O)[C@@H](O)[C@H]1O` [ApppA], under setting [1], the IC50 was more than 100 µM.

Consider `C[n+]1cn(C2OC(COP(=O)([O-])OP(=O)(O)OP(=O)(O)OP(=O)(O)OP(=O)(O)OCC3OC(n4cnc5c(=O)[nH]c(N)nc54)C(O)C3O)C(O)C2O)c2nc(N)[nH]c(=O)c21` (stereo not drawn) [m7GpppppG], for which, under setting [1], the IC50 is 13.9 ± 2.5 µM.

Consider m7Gppp-SCH2-triazole-G, for which the IC50 under setting [1] worked out at 24.9 ± 4.8 µM.

As for m7GpppApG, the IC50 under setting [1] was 11.3 ± 2 µM.

In the case of `CNc1ncnc2c1ncn2[C@@H]1O[C@H](COP(=O)(O)OP(=O)(O)OP(=O)(O)OC[C@H]2O[C@@H](n3c[n+](C)c4c(=O)[nH]c(N)nc43)[C@H](O)[C@@H]2O)[C@@H](OP(=O)(O)OC[C@H]2O[C@@H](n3cnc4c(=O)[nH]c(N)nc43)[C@H](O)[C@@H]2O)[C@H]1O` [m7Gpppm6ApG], the IC50 under setting [1] was determined as 16.9 ± 3.2 µM.

On to m7GNpppG, for which the IC50 under setting [1] came to 32.1 ± 5.9 µM.

On to `Nc1nc2c(cnn2CCc2ccccc2)c2nc(-c3ccco3)nn12` [SCH 58261, reference compound], for which the IC50 is 4.5 ± 0.8 µM.

Turning to Gpp-triazole-m7G, under setting [1], the IC50 is more than 100 µM.

Consider `Nc1ncnc2c1ncn2[C@@H]1O[C@H](COP(O)(=S)OP(=O)(O)OP(O)(=S)OC[C@H]2O[C@@H](n3cnc4c(N)ncnc43)[C@H](O)[C@@H]2O)[C@@H](O)[C@H]1O` (stereo partly drawn) [ApSppSA], for which the IC50 under setting [1] is more than 100 µM.

Gppp-SCH2-triazole-m7G: under setting [1], the IC50 is more than 100 µM.

As to m7GppCCppG, the IC50 under setting [1] came to 24.4 ± 4 µM.

For `CO[C@@H]1[C@H](OP(=O)(O)OC[C@H]2O[C@@H](n3cnc4c(=O)[nH]c(N)nc43)[C@H](O)[C@@H]2O)[C@@H](COP(=O)(O)OP(=O)([O-])OP(=O)(O)OC[C@H]2O[C@@H](n3c[n+](C)c4c(=O)[nH]c(N)nc43)[C@H](O)[C@@H]2OC)O[C@H]1n1cnc2c(=O)[nH]c(N)nc21` [m7GmpppGmpG], the 50% inhibitory concentration (IC50) is 3.9 ± 0.5 µM under setting [2] and approximately 4 µM (read-out: IC50, nucleotide-derived compounds, FLINT HTS assay, in-house nucleotide library (Table S1, Figure 3), 3 μM probe 1b, 5 nM D9, 30 °C, means of 3 independent experiments ± SEM, listed as m^7GmpppGmpG).

`CO[C@@H]1[C@H](OP(=O)(O)OC[C@H]2O[C@@H](n3cnc4c(=O)[nH]c(N)nc43)[C@H](O)[C@@H]2O)[C@@H](COP(=O)(O)CP(=O)(O)OP(=O)([O-])OC[C@H]2O[C@@H](n3c[n+](C)c4c(O)nc(N)nc43)[C@H](O)[C@@H]2O)O[C@H]1n1cnc2c(N)ncnc21` [m7GppCH2pAmpG]: under setting [1], the IC50 came to 27.4 ± 6.2 µM.

Regarding `C[n+]1cn([C@@H]2O[C@H](COP(=O)(O)CP(=O)([O-])OP(=O)(O)O)[C@@H](O)[C@H]2O)c2nc(N)nc(O)c21` [m7GpCH2pp], the concentration for half-maximal inhibition (IC50) under setting [2] is 0.58 ± 0.06 µM.

For m7Gpp-triazole-G, the IC50 under setting [1] was 17.5 ± 2.6 µM.

On to `CO[C@@H]1[C@H](OP(=O)(O)OC[C@H]2O[C@@H](n3cnc4c(=O)[nH]c(N)nc43)[C@H](O)[C@@H]2O)[C@@H](COP(=O)(O)OP(=O)(O)OP(=O)([O-])OC[C@H]2O[C@@H]([n+]3cn(C)c4c(=O)[nH]c(N)nc43)[C@H](O)[C@@H]2O)O[C@H]1n1cnc2c(=O)[nH]c(N)nc21` [m7GpppGmpG], for which, under setting [1], the IC50 is 12 ± 2.4 µM.

As for `C[n+]1cn(C2OC(COP(=O)(O)OP(=O)([O-])C(Cl)(Cl)P(=O)(O)OP(=O)(O)OCC3OC(n4cnc5c(=O)[nH]c(N)nc54)C(O)C3O)C(O)C2O)c2nc(N)nc(O)c21` (stereo not drawn) [m7GppCCl2ppG], the IC50 under setting [1] came to 41.4 ± 6.6 µM.

Gpp-SCH2-triazole-m7G: under setting [1], the IC50 is more than 100 µM.

Turning to m7Gpp-SCH2-triazole-G, the IC50 under setting [1] was found to be 46 ± 6.8 µM.

With `Nc1nc2c(ncn2[C@@H]2O[C@H](COP(=O)(O)OP(=O)(O)OP(=O)(O)OC[C@H]3O[C@@H](n4cnc5c(N)ncnc54)[C@H](O)[C@@H]3O)[C@@H](O)[C@H]2O)c(=O)[nH]1` [GpppA], the IC50 under setting [1] is more than 100 µM.

On to `Cc1n([C@@H]2O[C@H](COP(=O)(O)OP(=O)(O)OP(=O)(O)O)[C@@H](O)[C@H]2O)c2nc(N)[nH]c(=O)c2[n+]1C` [Compound 8Mem7GTP, 8Mem7GTP], for which the IC50 under setting [1] came to 42.9 ± 7.8 µM.

Consider `C[n+]1cn(C2OC(COP(=O)([O-])OP(=O)(O)OP(=O)(O)OCC3OC(n4cnc5c(=S)[nH]c(N)nc54)C(O)C3O)C(O)C2O)c2nc(N)[nH]c(=O)c21` (stereo not drawn) [m7Gppp6SG], for which the IC50 under setting [1] was determined as 14.1 ± 1.7 µM.

In the case of `C[n+]1cn([C@@H]2O[C@H](COP(=O)(O)OP(=O)(O)OP(=O)(O)OC[C@H]3O[C@@H](n4c[n+](C)c5c(=O)[nH]c(N)nc54)[C@H](O)[C@@H]3O)[C@@H](O)[C@H]2O)c2nc(N)[nH]c(=O)c21` [m7Gpppm7G], under setting [1], the IC50 was 14.3 ± 2.1 µM.

Take m7Gmppp6SG: under setting [1], the IC50 is 7.2 ± 1.1 µM.

As for `Cn1c[n+]([C@@H]2O[C@H](COP(=O)(O)O)[C@@H](O)[C@H]2O)c2nc(N)[nH]c(=O)c21` [m7GMP], the IC50 under setting [1] is more than 100 µM.

Take `C[n+]1cn([C@@H]2O[C@H](COP([O-])(=S)OP(=O)(O)O)[C@@H](O)[C@H]2O)c2nc(N)[nH]c(=O)c21` (stereo partly drawn) [m7GDPαS D1]: the IC50 under setting [1] was determined as 8.3 ± 1.7 µM.

Consider `COc1cc(NS(C)(=O)=O)ccc1Nc1c2ccccc2nc2ccccc12` [amsacrine hydrochloride, reference compound], for which the IC50 was 12.6 ± 1.7 µM.

With `C[n+]1cn([C@@H]2O[C@H](COP(O)(=S)OP(=O)(O)O)[C@@H](O)[C@H]2O)c2nc(N)[nH]c(=O)c21` (stereo partly drawn) [m7GDPαS D2], the IC50 under setting [1] was determined as 7.6 ± 1.2 µM.

For the compound `Nc1nc2ccc(Cl)cc2c2nc(-c3ccco3)nn12` [CGS-15943, reference compound], the IC50 came out at 20.1 ± 5.2 µM.

Regarding `C[n+]1cn(C2OC(COP(=O)(O)OP(=O)([O-])C(F)(F)P(=O)(O)OP(=O)(O)OCC3OC(n4cnc5c(=O)[nH]c(N)nc54)C(O)C3O)C(O)C2O)c2nc(N)nc(O)c21` (stereo not drawn) [m7GppCF2ppG], under setting [1], the IC50 is 16.7 ± 3.1 µM.
